Key:
[1] = biological target: T1, Integrin alpha-IIb/beta-3 (Homo sapiens, UniProt P05106+P08514); assay: In vitro inhibition of FITC-labeled fibrinogen binding to alphaIIb-beta3 receptor of human platelets
[2] = biological target: T1, Integrin alpha-IIb/beta-3; assay: In vitro binding affinity for FITC-labeled fibrinogen binding to alphaIIb-beta3 receptor of human platelets
[3] = In vitro inhibition of Collagen-induced platelet aggregation in canine platelet rich plasma

T1 sequence (P05106 27-788 limits assumed): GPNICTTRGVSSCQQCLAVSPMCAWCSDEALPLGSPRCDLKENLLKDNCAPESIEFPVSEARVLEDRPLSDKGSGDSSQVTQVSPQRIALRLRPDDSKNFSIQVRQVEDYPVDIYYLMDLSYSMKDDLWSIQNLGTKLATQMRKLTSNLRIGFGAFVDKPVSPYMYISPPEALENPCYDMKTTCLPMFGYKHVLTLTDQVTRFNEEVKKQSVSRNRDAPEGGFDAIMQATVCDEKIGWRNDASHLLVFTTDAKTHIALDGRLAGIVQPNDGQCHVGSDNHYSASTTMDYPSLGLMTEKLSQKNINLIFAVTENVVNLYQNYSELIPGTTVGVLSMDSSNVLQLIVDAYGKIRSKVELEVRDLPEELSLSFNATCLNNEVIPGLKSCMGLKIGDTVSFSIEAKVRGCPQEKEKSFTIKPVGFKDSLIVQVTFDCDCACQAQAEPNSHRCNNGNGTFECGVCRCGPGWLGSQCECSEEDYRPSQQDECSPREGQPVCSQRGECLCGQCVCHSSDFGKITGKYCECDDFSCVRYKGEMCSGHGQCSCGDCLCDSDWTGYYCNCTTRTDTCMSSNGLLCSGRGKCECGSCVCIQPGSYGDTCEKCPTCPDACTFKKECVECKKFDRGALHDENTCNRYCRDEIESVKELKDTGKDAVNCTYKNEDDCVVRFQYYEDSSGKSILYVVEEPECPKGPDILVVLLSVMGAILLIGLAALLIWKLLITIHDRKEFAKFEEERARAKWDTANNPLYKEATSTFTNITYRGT
T1 sequence (P08514 32-887 limits assumed): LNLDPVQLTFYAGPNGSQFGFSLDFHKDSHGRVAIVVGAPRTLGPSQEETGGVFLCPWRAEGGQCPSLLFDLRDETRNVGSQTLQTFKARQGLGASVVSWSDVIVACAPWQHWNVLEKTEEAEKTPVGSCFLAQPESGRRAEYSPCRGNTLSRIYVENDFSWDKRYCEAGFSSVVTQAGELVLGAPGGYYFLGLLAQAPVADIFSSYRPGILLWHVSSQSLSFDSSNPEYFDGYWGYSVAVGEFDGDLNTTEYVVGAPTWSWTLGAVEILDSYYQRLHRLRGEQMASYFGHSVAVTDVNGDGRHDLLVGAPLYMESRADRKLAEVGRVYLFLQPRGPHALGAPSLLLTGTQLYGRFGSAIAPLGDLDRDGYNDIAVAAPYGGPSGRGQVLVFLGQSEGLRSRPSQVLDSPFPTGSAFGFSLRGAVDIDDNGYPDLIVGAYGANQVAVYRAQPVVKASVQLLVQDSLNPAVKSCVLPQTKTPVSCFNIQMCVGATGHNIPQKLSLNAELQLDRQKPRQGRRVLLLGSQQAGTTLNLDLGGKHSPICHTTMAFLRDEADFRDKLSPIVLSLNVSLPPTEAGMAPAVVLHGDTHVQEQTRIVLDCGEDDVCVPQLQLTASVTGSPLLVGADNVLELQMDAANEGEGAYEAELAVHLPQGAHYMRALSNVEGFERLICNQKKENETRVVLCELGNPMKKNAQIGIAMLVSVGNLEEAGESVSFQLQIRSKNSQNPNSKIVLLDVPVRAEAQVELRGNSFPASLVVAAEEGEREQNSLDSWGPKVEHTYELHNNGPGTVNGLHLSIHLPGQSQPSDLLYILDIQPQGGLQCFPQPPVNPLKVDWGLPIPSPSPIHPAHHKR
T1 sequence (P08514 891-1039 limits assumed): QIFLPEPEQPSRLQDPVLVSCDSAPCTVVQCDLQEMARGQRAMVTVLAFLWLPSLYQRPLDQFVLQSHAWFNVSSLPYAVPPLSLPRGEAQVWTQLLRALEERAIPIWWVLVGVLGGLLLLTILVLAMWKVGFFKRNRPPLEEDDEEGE

IC50 [1] [nM] | Ki [2] [nM] | IC50 [3] [nM] | SMILES
8.3 | 4.2 | – | O=C(O)CC(NC(=O)CCC(=O)Nc1ccc2c(c1)CNC2)c1ccccc1 (stereo unspecified)
10 | 7.1 | – | O=C(O)CCNC(=O)CCC(=O)Nc1ccc2c(c1)CNC2
– | – | 1090 | N=C(N)c1ccc(NC(=O)CCC(=O)NCCC(=O)O)cc1
– | – | 290 | N=C(N)c1ccc(NC(=O)CCC(=O)NC(CC(=O)O)c2ccccc2)cc1 (stereo unspecified)

Source: ChEMBL document CHEMBL1138020, “Novel fibrinogen receptor antagonists. RGDF mimetics, derivatives of 4-(isoindoline-5-yl)amino-4-oxobutyric acid” (Bioorg Med Chem Lett, 2004)
